# Measured values reported in publication PMC6829886, “Inhibition of Non-Small Cell Lung Cancer Cells by Oxy210, an Oxysterol-Derivative that Antagonizes TGFβ and Hedgehog Signaling” (Cells, 2019).
# Values joined by “and” are separate entries in the source; they are usually repeats but may differ in a detail not shown here. Equal values may be shown once.
# What was measured:
# [1] = tested on: Hh signaling (Gli1, Ptch1 mRNA) in NIH3T3-E1 cells; assay: Ligand-induced Hh target gene expression (Q-RT-PCR) in NIH3T3 cells treated with CAPAN-1 conditioned medium; type: cell-based
# Experimental: Growth medium in confluent […] tissue culture plates of CAPAN-1 cells was replaced with 10 mL of fresh growth medium and cells incubated for a total of 7 days. Conditioned medium (CM) containing Shh and Ihh was collected and spun down to remove any detached cells and debris, aliquoted, and stored frozen at −80 °C (21).
# Total RNA was extracted with the RNeasy Plus Mini Kit from Qiagen (Hilden, Germany) according to the manufacturer’s instructions. One microgram of RNA was reverse-transcribed using an iScript Reverse Transcription Supermix from Bio-Rad Laboratories (Hercules, CA, USA) to make single-stranded cDNA. The cDNAs were then mixed with Qi SYBR Green Supermix (Bio-Rad) for quantitative RT-PCR assay using a Bio-Rad I-cycler IQ quantitative thermocycler. All PCR samples were prepared in triplicate wells in a 96-well plate. After 40 cycles of PCR, melt curves were examined in order to ensure primer specificity. Fold changes in gene expression were calculated using the ΔΔCt method. Primers used for mouse were as follows: Oaz1 (5′-CCACTGCTTCGCCAGAGAG-3′) and (5′-CCCGGACCCAGGTTACTA-3′), Gli1 (5′- […]-3′ and 5′- GCT GATCCAGCCTAAGGTTCTC-3′), Ptch1 (5′-CCATCGGCGACAAGAACC-3′ and 5′-[…]-3′), Thbs1 (5′-[…]-3′ and 5′-CGGGGATCAGGTTGGCATT-3′), Cryab (5′-[…]-3′ and 5′-[…]-3′), Egr2 (5′-[…]-3′ and 5′-[…]-3′), CTGF (5′-GGGCCTCTTCTGCGATTTC-3′ and 5′-[…]-3′).
# Statistical analyses were performed using the StatView 5 program (SAS Institute, Cary, NC, USA). All p values were calculated using ANOVA and Fisher’s projected least significant difference (PLSD) significance test. A value of p < 0.05 was considered significant. The IC 50 dose-response curves shown in Figure 4b and Figure 7a–c were modeled using a five-parameter logistic model. This model allows for asymmetric curves and automatically estimates the mean maximum and minimum response. Based on this model, IC 50 values were estimated corresponding to the dose halfway between min and max response. Models of dose versus response and dose versus log response were also evaluated (see Supplementary Materials). The R square statistic was computed as a measure of model fit.
# Figure 4 Inhibition of ligand-induced Hedgehog and TGFβ signaling in mouse fibroblast cells. NIH3T3 cells were pretreated for 2 h with Oxy210 or various inhibitors as indicated in DMEM containing 5% FBS. […] After 72 h, RNA was extracted and analyzed by Q-RT-PCR for the expression of Hh target genes Gli1 and Ptch1 and normalized to Oaz1 expression (a,b). […] After 48 h, RNA was extracted and analyzed by Q-RT-PCR for the expression of TGFβ target genes as indicated and normalized to Oaz1 expression. […] Luciferase activity was measured and normalized to the Renilla luciferase activity. […]
# [2] = Single oral dose pharmacokinetic study in mice; type: in vivo; settings: mouse, plasma, oral gavage, single dose 50 mg/kg
# Experimental: In an initial assessment of drug-like properties of Oxy210, we performed a pharmacokinetic (PK) study in mice. Oxy210, formulated in 3% DMSO + 7% Ethanol + 5% PEG400 + 85% corn oil, was administered to balb/c mice by oral gavage as a single dose of 50 mg/kg. Plasma samples were taken at 10 min, 30 min, 1 h, 2 h, 4 h, and 8h, followed by LC/MS analysis. […] Additional PK studies in mice were performed with Oxy210 in a dose escalation study with repeated once daily oral dosing (50 mg/kg, 200 mg/kg and 400 mg/kg) for 7 days.
# Figure 13 Drug-like properties of Oxy210. (a) A single dose of Oxy210 at 50 mg/kg, formulated in 3% DMSO + 7% Ethanol + 5% PEG400 + 85% corn oil, was administered to balb/c mice by oral gavage. Plasma samples were taken at 10 min, 30 min, 1h, 2h, 4h, 6h, and 8h, followed by LC/MS analysis of the plasma. (b) Evolution of Oxy210 and Oxy186 from parent compound Oxy16 and their drug-like properties.
smiles,measurement,setting,value
"C[C@]12CC[C@H]3[C@@H](CC=C4C[C@@H](O)CC[C@@]43C)[C@@H]1CC[C@@H]2[C@](C)(O)CCc1cccnc1 [Oxy210, (3S,8S,9S,10R,13S,14S,17S)-17-((R)-2-hydroxy-4-(pyridin-3-yl)butan-2-yl)-10,13-dimethyl-2,3,4,7,8,9,10,11,12,13,14,15,16,17-tetradecahydro-1H-cyclopenta[a]phenanthren-3-ol]","IC10 Estimate, dataset 1 - Fig 4b","[1]; Gli1 mRNA, original scale Y, logistic curve model",0.33 µM
same,IC90,"[1]; Mus musculus, Gli1 mRNA, original scale Y, logistic curve model, read-out: IC90 Estimate, dataset 1 - Fig 4b",5.5 µM
same,mRNA expression of ligand-induced Hh target genes Gli1 and Ptch1,"[1]; NIH3T3-E1 cells, CAPAN-1 CM, 72 h",robustly inhibited
same,IC50,"[1]; NIH3T3-E1 cells, CAPAN-1 CM, 72 h, Gli1 mRNA, five-parameter logistic model, ± SE, read-out: IC50 for inhibition of Gli1 expression",1.83 ± 0.21 µM
same,MRT,"[2]; balb/c, po, 50 mg/kg, read-out: mean residence time (MRT)",8 h
same,AUC(0-inf),[2]; balb/c mice,9.21 µg·h/mL
same,Tmax,[2]; balb/c mice,0.5 h
same,Cmax,[2]; balb/c mice,1970 ng/mL and 4.7 µM
